Test results: patent US7410975B2, “Small molecule toll-like receptor (TLR) antagonists” (Coley Pharmaceutical Group, Inc., priority 2003, dated 2008)
Like-named read-outs stand apart in the source and are kept apart here.

Assays:
[1] = read-out: IC50 by Macfarlane's assay; cited from earlier work
Plasmodium falciparum = conditions: treatment of malaria; Aderounmu 1984; cited from earlier work
[2] = cited from earlier work
hTLR9 = biological target: T1, hTLR9 (Homo sapiens, UniProt Q9NR96); experiment: hTLR9 antagonism IC50, hTLR9-NFkB-293 cells, luciferase readout, CpG-ODN 2006 (Examples 8 and 18, Tables 19 and 20); assay type: cell-based; conditions: hTLR9-NFkB-293 cells, EC50 dose of CpG-ODN 2006, 16 h; Table 19 quinazolines; read-out: hTLR9 (IC50 dose for blockade of a CpG ODN-generated signal)
T1 construct: expressed in transfected cells
T1 sequence (Q9NR96 26-1032): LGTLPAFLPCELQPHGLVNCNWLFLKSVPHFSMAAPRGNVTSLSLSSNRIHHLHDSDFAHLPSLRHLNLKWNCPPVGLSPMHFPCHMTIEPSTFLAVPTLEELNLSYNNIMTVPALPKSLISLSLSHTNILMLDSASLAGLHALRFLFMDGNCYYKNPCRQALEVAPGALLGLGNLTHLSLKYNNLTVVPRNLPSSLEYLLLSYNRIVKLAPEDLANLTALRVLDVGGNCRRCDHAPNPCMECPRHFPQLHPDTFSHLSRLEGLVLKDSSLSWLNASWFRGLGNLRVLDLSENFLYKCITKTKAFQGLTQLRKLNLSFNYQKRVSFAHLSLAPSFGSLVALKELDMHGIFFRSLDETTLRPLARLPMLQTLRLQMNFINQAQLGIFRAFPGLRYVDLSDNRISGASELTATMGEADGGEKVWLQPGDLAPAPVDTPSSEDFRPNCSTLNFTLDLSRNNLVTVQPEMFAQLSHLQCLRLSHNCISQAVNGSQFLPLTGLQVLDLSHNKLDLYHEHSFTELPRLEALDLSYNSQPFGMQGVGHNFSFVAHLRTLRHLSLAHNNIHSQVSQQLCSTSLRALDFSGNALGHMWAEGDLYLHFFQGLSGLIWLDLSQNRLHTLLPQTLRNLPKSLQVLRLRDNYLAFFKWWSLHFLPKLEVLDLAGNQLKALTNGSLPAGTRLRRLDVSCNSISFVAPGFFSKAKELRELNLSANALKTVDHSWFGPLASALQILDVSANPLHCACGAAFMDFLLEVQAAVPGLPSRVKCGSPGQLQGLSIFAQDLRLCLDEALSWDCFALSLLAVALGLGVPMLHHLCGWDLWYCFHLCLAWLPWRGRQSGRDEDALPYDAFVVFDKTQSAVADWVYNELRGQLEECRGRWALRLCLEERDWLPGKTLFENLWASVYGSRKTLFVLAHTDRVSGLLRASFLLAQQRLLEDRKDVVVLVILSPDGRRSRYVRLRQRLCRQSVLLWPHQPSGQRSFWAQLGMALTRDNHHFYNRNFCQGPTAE
Description: (§1) hTLR9-NFkB-293 cells were counted and seeded at 1.5×10^4 cells per well in 96-well cell culture plates one day before assaying and cultured at 37° C./5% CO2, as described in Example 7. The day of the assay, antagonist was added at varying concentrations starting at 50 μM with a 1/5 to 1/6 dilution for 7 steps. The cells were then stimulated with the EC50 dose of the TLR9 agonist, CpG-ODN 2006, and cultured for 16 h in a humidified incubator at 37° C. The culture supernatant was removed and the cells were treated with lysis buffer and stored at −80° C. before measuring luciferase activity as described in Example 7. […] Results shown in Table 19 under the heading hTLR9 are the IC50 dose (μM) for blockade of a CpG ODN-generated signal in hTLR9-NFkB-293 cells.
as §1, with “20” for “19”

[3] = tested on: CpG ODN-generated IL-6 production by human PBMC; experiment: Blockade of CpG ODN-generated IL-6 production by human PBMC, ELISA (Example 8, Table 19); assay type: cell-based; conditions: CpG-ODN 2006, 16 h
From the text: Alternatively, TLR9 ligand antagonism in human peripheral blood mononuclear cells (PBMC) was monitored. Peripheral blood buffy coat preparations from healthy male and female human donors were obtained from the Blood Bank of the University of Düsseldorf (Germany) and from these, PBMC were purified by centrifugation over Ficoll-Hypaque (Sigma). The purified PBMC were resuspended in RPMI 1640 culture medium supplemented with 5% (v/v) heat-inactivated human AB serum (Bio Whittaker, Belgium) or 10% (v/v) heat-inactivated fetal calf serum (FCS), 1.5 mM L-glutamine, 100 U/ml penicillin and 100 μg/ml streptomycin (all from Sigma). Fresh PBMC at a concentration of 3×10^6/ml to 5×10^6/ml were added to 96-well round-bottomed plates (150 μl/well). After cell plating, antagonist was added at varying concentrations starting at 50 μM with a 1/5 to 1/6 dilution for 7 steps. The cells were then stimulated with the TLR9 agonist, CpG-ODN 2006, and cultured for 16 h in a humidified incubator at 37° C. Culture supernatants were collected and, if not used immediately, frozen at −20° C. until required. Interleukin 6 (IL-6) in the supernatants was quantitatively assessed using commercially available ELISA Kits (IL6, Diaclone, USA). Sigmoidal antagonism curves were generated and IC50 calculated. Results shown in Table 19 under the heading IL-6 are the IC50 dose (μM) for blockade of CpG ODN-generated IL-6 production by human PBMC.

[4] = Macfarlane's assay of chloroquines (IC50); conditions: from the Macfarlane IC50 values
From the text: It turns out that chloroquine, hydroxychloroquine, mono de-ethylchloroquine, and bis de-ethylchloroquine have been examined by Macfarlane.

WEHI 231 B-cells = conditions: anti-surface IgM, U.S. Pat. No. 6,479,504, read-out: EC50, half-maximal inhibition of CpG-ODN effect on thymidine uptake; cited from earlier work
human TLR9 (hTLR9) = biological target: T2, human TLR9 (hTLR9) (Homo sapiens, UniProt Q9NR96); assay type: cell-based; conditions: three-point assay at 50, 5.0 or 0.5 μM; EC50 dose of CpG-ODN 2006, 16 h
T2 construct: expressed in transfected cells
T2 sequence (Q9NR96 26-1032): T1 sequence (Q9NR96 26-1032)
Description: Stably co-transfecting the human TLR9 receptor (hTLR9) and an NF-κB promoter-driven luciferase gene into HEK-293 cells created the cell line hTLR9-NFkB-293. hTLR9-NFkB-293 cells were counted and seeded at 1.5×10^4 cells per well in 96-well cell culture plates one day before assaying and cultured at 37° C./5% CO2. The day of the assay, antagonist was added at 50 μM, 5.0 μM or 0.5 μM. The cells were then stimulated with the EC50 dose of the TLR9 agonist, CpG-ODN 2006, and cultured for 16 h in a humidified incubator at 37° C. The culture supernatant was removed and the cells were treated with lysis buffer and stored at −80° C. before measuring luciferase activity. The luciferase readout was measured according to manufacturer's instructions using a luciferase assay system available from Promega, USA. The antagonist dose listed in Table 18 is the minimum effective dose (μM) for blockade of the TLR9 agonist. As evident from the results presented in Table 18, the minimum effective dose (μM) for blockade of the TLR9 agonist was 0.5 μM or 5 μM for all of the compounds tested, as measured by this three-point assay.

Structure (SMILES)	IC50 [1] [nM]	IC50 (hTLR9) [nM]	IC50 [3] [nM]	further results
CCN(CC)CCCC(C)Nc1ccnc2cc(Cl)ccc12 (centres unmarked) [chloroquine]	110			potency against Plasmodium falciparum (Plasmodium falciparum): about equal; half life in humans ([2]; human, in vivo): 18 days
CN(C)CCNC1NC(c2ccc(N3CCN(C)CC3)cc2)=Nc2ccccc21 (centres unmarked) [CMZ 203-34(201), N,N-dimethyl-N′-{2-[4-(4-methyl-piperazin-1-yl)-phenyl]-3,4-dihydro-quinazoline-4-yl}-ethane-1,2,-diamine]		3	50	
CC(CCCN)Nc1ccnc2cc(Cl)ccc12 (centres unmarked) [bis de-ethylchloroquine]	1860			reduction of potency relative to chloroquine [4]: about 18 fold; potency against Plasmodium falciparum (Plasmodium falciparum): about half as active
CCN(CCO)CCCC(C)Nc1ccnc2cc(Cl)ccc12 (centres unmarked) [hydroxychloroquine]	410			
CCNCCCC(C)Nc1ccnc2cc(Cl)ccc12 (centres unmarked) [mono de-ethylchloroquine]	708			reduction of potency relative to chloroquine [4]: about 7 fold; potency against Plasmodium falciparum (Plasmodium falciparum): about equal; half life relative to that of chloroquine ([2]; humans): 1.5 times; half life in humans ([2]; humans, de Vries 1994): 27 days
COc1cc2nc(N3CCN(c4ccccc4)CC3)nc(NCCN(C)C)c2cc1OC [CMZ 203-78, N′-[6,7-Dimethoxy-2-(4-phenyl-piperazin-1-yl)-quinazolin-4-yl]-N,N-dimethyl-ethane-1,2-diamine]		3	8	
CN(C)CCOc1nc(-c2ccc(N3CCN(C)CC3)cc2)nc2ccccc12 [CMZ 203-49(213), Dimethyl-(2-{2-[4-(4-methyl-piperazin-1-yl)-phenyl]-quinazolin-4-yloxy}-ethyl)-amine]		2400	600	
COc1cc2nc(N3CCN(C)CC3)nc(NCCN(C)C)c2cc1OC [CMZ 203-76, N′-[6,7-Dimethoxy-2-(4-methyl-piperazin-1-yl)-quinazolin-4-yl]-N,N-dimethyl-ethane-1,2-diamine]		3	221	
CN(C)CCNc1nc(-c2ccc(-c3ccccc3)cc2)nc2ccccc12 [CMZ 203-51, N′-(2-Biphenyl-4-yl-quinazolin-4-yl)-N,N-dimethyl-ethane-1,2-diamine]		5200	6600	
CCN(CC)CCCC(C)Nc1c2ccc(Cl)cc2nc2ccc(OC)cc12 (centres unmarked) [quinacrine]				EC50 (WEHI 231 B-cells): ~8 nM
Cc1cc(C)c2c(N)c3ccccc3nc2n1 [compound 1690, 2,4-Dimethyl-benzo[b][1,8]naphthyridin-5-ylamine]				antagonist dose (minimum effective dose for blockade of the TLR9 agonist) (human TLR9 (hTLR9)): 0.5 µM
CN(C)CCNc1nc(-c2ccccc2)nc2ccccc12 [CMZ 203-44, N,N-Dimethyl-N′-(2-phenyl-quinazolin-4-yl)-ethane-1,2-diamine]		2400	4000	
